In PubChem BioAssay (NCI):
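In this assay, cells in 96-well plates receive the compound at five concentrations for 48 hours. Endpoints are linearly interpolated between the surrounding concentrations. At the GI50, growth is halved. TGI marks complete inhibition of growth.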

How the values were obtained:
Assay in all cases: DTP human tumour cell line panel, 48 h
SR leukemia = system: SR leukemia
SNB-19 CNS = system: SNB-19 CNS
NCI-H522 lung = system: NCI-H522 lung
PC-3 prostate = system: PC-3 prostate
SK-OV-3 ovarian = system: SK-OV-3 ovarian
SF-539 CNS = system: SF-539 CNS
MCF7 breast = system: MCF7 breast
MDA-MB-468 breast = system: MDA-MB-468 breast
ACHN renal = system: ACHN renal
HOP-62 NSCLC = system: HOP-62 NSCLC
A498 renal = system: A498 renal
SNB-75 CNS = system: SNB-75 CNS
SK-MEL-2 melanoma = system: SK-MEL-2 melanoma
HOP-92 NSCLC = system: HOP-92 NSCLC
U251 CNS = system: U251 CNS
UACC-257 melanoma = system: UACC-257 melanoma
MOLT-4 leukemia = system: MOLT-4 leukemia
UO-31 renal = system: UO-31 renal
MDA-MB-435 = system: MDA-MB-435
786-0 renal = system: 786-0 renal
HCC-2998 colon = system: HCC-2998 colon
SK-MEL-5 melanoma = system: SK-MEL-5 melanoma
RPMI-8226 leukemia = system: RPMI-8226 leukemia
LOX IMVI melanoma = system: LOX IMVI melanoma
OVCAR-5 ovarian = system: OVCAR-5 ovarian
NCI-H226 lung = system: NCI-H226 lung
A549 NSCLC = system: A549 NSCLC
TK-10 renal = system: TK-10 renal
COLO 205 colon = system: COLO 205 colon
HCT-116 colon = system: HCT-116 colon
NCI-H460 lung = system: NCI-H460 lung
OVCAR-4 ovarian = system: OVCAR-4 ovarian
KM12 colon = system: KM12 colon
CAKI-1 renal = system: CAKI-1 renal
OVCAR-8 ovarian = system: OVCAR-8 ovarian
DU-145 prostate = system: DU-145 prostate
SK-MEL-28 melanoma = system: SK-MEL-28 melanoma
SF-268 CNS = system: SF-268 CNS
EKVX NSCLC = system: EKVX NSCLC
M14 melanoma = system: M14 melanoma
SW-620 colon = system: SW-620 colon
NCI-H23 lung = system: NCI-H23 lung
SF-295 CNS = system: SF-295 CNS
HCT-15 colon = system: HCT-15 colon
UACC-62 melanoma = system: UACC-62 melanoma
RXF 393 renal = system: RXF 393 renal
MDA-MB-231 breast = system: MDA-MB-231 breast
MALME-3M melanoma = system: MALME-3M melanoma
K-562 leukemia = system: K-562 leukemia
HS 578T breast = system: HS 578T breast
OVCAR-3 ovarian = system: OVCAR-3 ovarian
SN12C renal = system: SN12C renal
HL-60(TB) leukemia = system: HL-60(TB) leukemia
CCRF-CEM leukemia = system: CCRF-CEM leukemia
IGROV1 ovarian = system: IGROV1 ovarian
BT-549 breast = system: BT-549 breast

CSc1ccccc1NC(=O)c1ccc2nnn(/C(C#N)=C/c3ccccn3)c2c1
GI50 (SR leukemia): 2510 nM | TGI (SR leukemia): 9.46 µM | GI50 (SNB-19 CNS): 13.4 µM | TGI (SNB-19 CNS): 26.2 µM | GI50 (NCI-H522 lung): 1560 nM | TGI (NCI-H522 lung): 3.22 µM | GI50 (PC-3 prostate): 4.09 µM | TGI (PC-3 prostate): 16.6 µM | GI50 (SK-OV-3 ovarian): 18.6 µM | TGI (SK-OV-3 ovarian): 33.8 µM | GI50 (SF-539 CNS): 1840 nM | TGI (SF-539 CNS): 3.54 µM | GI50 (MCF7 breast): 1690 nM | TGI (MCF7 breast): 3.36 µM | GI50 (MDA-MB-468 breast): 1600 nM | TGI (MDA-MB-468 breast): 3.32 µM | GI50 (ACHN renal): 1780 nM | TGI (ACHN renal): 3.17 µM | GI50 (HOP-62 NSCLC): 15.7 µM | TGI (HOP-62 NSCLC): 30.9 µM | GI50 (A498 renal): 15.3 µM | TGI (A498 renal): 28.6 µM | GI50 (SNB-75 CNS): 10.1 µM | TGI (SNB-75 CNS): 21.7 µM | GI50 (SK-MEL-2 melanoma): 2250 nM | TGI (SK-MEL-2 melanoma): 5.22 µM | GI50 (HOP-92 NSCLC): 1890 nM | TGI (HOP-92 NSCLC): 7.5 µM | GI50 (U251 CNS): 3.61 µM | TGI (U251 CNS): 12.9 µM | GI50 (UACC-257 melanoma): 2020 nM | TGI (UACC-257 melanoma): 5.3 µM | GI50 (MOLT-4 leukemia): 3.29 µM | TGI (MOLT-4 leukemia): 9.07 µM | GI50 (UO-31 renal): 1550 nM | TGI (UO-31 renal): 2890 nM | GI50 (MDA-MB-435): 2070 nM | TGI (MDA-MB-435): 4.89 µM | GI50 (786-0 renal): 1820 nM | TGI (786-0 renal): 3.38 µM | GI50 (HCC-2998 colon): 1780 nM | TGI (HCC-2998 colon): 3.33 µM | GI50 (SK-MEL-5 melanoma): 3.37 µM | TGI (SK-MEL-5 melanoma): 12.1 µM | GI50 (RPMI-8226 leukemia): 3.14 µM | TGI (RPMI-8226 leukemia): > 100 µM | GI50 (LOX IMVI melanoma): 1700 nM | TGI (LOX IMVI melanoma): 3.19 µM | GI50 (OVCAR-5 ovarian): 1840 nM | TGI (OVCAR-5 ovarian): 3.91 µM | GI50 (NCI-H226 lung): 13.9 µM | TGI (NCI-H226 lung): 32.9 µM | GI50 (A549 NSCLC): 10.2 µM | TGI (A549 NSCLC): 23.6 µM | GI50 (TK-10 renal): 1750 nM | TGI (TK-10 renal): 3.25 µM | GI50 (COLO 205 colon): 2020 nM | TGI (COLO 205 colon): 3.63 µM | GI50 (HCT-116 colon): 1800 nM | TGI (HCT-116 colon): 3.46 µM | GI50 (NCI-H460 lung): 3.24 µM | TGI (NCI-H460 lung): 11.1 µM | GI50 (OVCAR-4 ovarian): 4.22 µM | TGI (OVCAR-4 ovarian): 17.3 µM | GI50 (KM12 colon): 3.08 µM | TGI (KM12 colon): 10.7 µM | GI50 (CAKI-1 renal): 1550 nM | TGI (CAKI-1 renal): 2920 nM | GI50 (OVCAR-8 ovarian): 3.34 µM | TGI (OVCAR-8 ovarian): 12.7 µM | GI50 (DU-145 prostate): 1930 nM | TGI (DU-145 prostate): 3.64 µM | GI50 (SK-MEL-28 melanoma): 1860 nM | TGI (SK-MEL-28 melanoma): 3.75 µM | GI50 (SF-268 CNS): 11.5 µM | TGI (SF-268 CNS): 28.7 µM | GI50 (EKVX NSCLC): 4.59 µM | TGI (EKVX NSCLC): 16.1 µM | GI50 (M14 melanoma): 2000 nM | TGI (M14 melanoma): 3.98 µM | GI50 (SW-620 colon): 1860 nM | TGI (SW-620 colon): 3.54 µM | GI50 (NCI-H23 lung): 1800 nM | TGI (NCI-H23 lung): 3.52 µM | GI50 (SF-295 CNS): 15.5 µM | TGI (SF-295 CNS): 28.8 µM | GI50 (HCT-15 colon): 1670 nM | TGI (HCT-15 colon): 3.54 µM | GI50 (UACC-62 melanoma): 1830 nM | TGI (UACC-62 melanoma): 3.84 µM | GI50 (RXF 393 renal): 1500 nM | TGI (RXF 393 renal): 2860 nM | GI50 (MDA-MB-231 breast): 1990 nM | TGI (MDA-MB-231 breast): 4.06 µM | GI50 (MALME-3M melanoma): 1750 nM | TGI (MALME-3M melanoma): 3.29 µM | GI50 (K-562 leukemia): 1840 nM | TGI (K-562 leukemia): 6.86 µM | GI50 (HS 578T breast): 3.29 µM | TGI (HS 578T breast): 13.3 µM | GI50 (OVCAR-3 ovarian): 1770 nM | TGI (OVCAR-3 ovarian): 3.48 µM | GI50 (SN12C renal): 3.87 µM | TGI (SN12C renal): 14.1 µM | GI50 (HL-60(TB) leukemia): 1900 nM | TGI (HL-60(TB) leukemia): 5.97 µM | GI50 (CCRF-CEM leukemia): 3000 nM | TGI (CCRF-CEM leukemia): > 100 µM | GI50 (IGROV1 ovarian): 2070 nM | TGI (IGROV1 ovarian): 4.46 µM | GI50 (BT-549 breast): 2320 nM | TGI (BT-549 breast): 7.2 µM

CN1CCN(Cc2ccc(NC(=O)c3cncc(C#Cc4cnc(N)c5ccccc45)c3)cc2C(F)(F)F)CC1
GI50 (MDA-MB-468 breast): 400 nM | TGI (MDA-MB-468 breast): 0.918 µM

Cn1cc(C2=C(c3ccc(OC[C@@H](O)CO)cc3)C(=O)NC2=O)c2ccccc21
GI50 (MDA-MB-468 breast): > 25000 nM | TGI (MDA-MB-468 breast): > 25 µM

C[C@@H]1Cc2c([nH]c3ccccc23)[C@@H](c2c(F)cc(/C=C/C(=O)O)cc2F)N1CC(C)(C)F
GI50 (MDA-MB-468 breast): 16900 nM | TGI (MDA-MB-468 breast): 53.5 µM

COc1nc2c(cc1S(=O)(=O)c1ccccc1)CCc1c-2cnn1-c1ccccc1Cl
GI50 (MDA-MB-468 breast): 3700 nM | TGI (MDA-MB-468 breast): > 100 µM

ClCc1ccccc1CSc1ncnc2nc[nH]c12
GI50 (MDA-MB-468 breast): 48900 nM | TGI (MDA-MB-468 breast): > 60 µM

CC1=C2[C@@H](CC1)[C@]1(C)O[C@@](C(C)C)(C[C@H]1OC(=O)[C@H](C)O)[C@H]2OC(=O)/C=C/c1ccccc1
GI50 (MDA-MB-468 breast): 12600 nM | TGI (MDA-MB-468 breast): 28.3 µM

COC(=O)c1c2c(c(C)[n+]([O-])c1C)C(=O)C=CC2=O
GI50 (MDA-MB-468 breast): 946 nM | TGI (MDA-MB-468 breast): 2.71 µM

COc1cc2c(c(OC)c1OC)-c1ccc(NCc3ccccc3)c(=O)cc1[C@@H](NC(C)=O)CC2
GI50 (MDA-MB-468 breast): 319 nM | TGI (MDA-MB-468 breast): 9.13 µM

Cn1c(-c2nonc2N)nc2cnccc21
GI50 (MDA-MB-468 breast): > 25000 nM | TGI (MDA-MB-468 breast): > 25 µM

CC[n+]1ccc2c(c1)C(=O)c1nccc3c1c-2nc1ccccc13
GI50 (MDA-MB-468 breast): 462 nM | TGI (MDA-MB-468 breast): 1.18 µM
